Test results: the supplement of paper PMC10307832

How the values were obtained:
Assay in all cases: relative viability (nuclei count vs DMSO), 5 days (fraction); higher = more cells survive
[1] = compound: CN(c1ncccc1CNc1nc(Nc2ccc3c(c2)CC(=O)N3)ncc1C(F)(F)F)S(C)(=O)=O + CC1(C)CCC(c2ccc(Cl)cc2)=C(CN2CCN(c3ccc(C(=O)NS(=O)(=O)c4ccc(N[C@H](CCN5CCOCC5)CSc5ccccc5)c(S(=O)(=O)C(F)(F)F)c4)cc3)CC2)C1 [Navitoclax] (partner 0.5 µM)
Outline: (§1)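 A single step with final 0.05% Triton X-100, 1% formaldehyde and 1 ug/ml Hoechst fixed the cells and stained nuclei 5 days after treatment. Lung cancer cell lines in 1536-well plates had been treated by pin tool the day after seeding with one drug alone or a fixed anchor-drug dose plus five library-drug doses (not always all listed) in √10 steps, and nuclei were counted on 4× images. Relative viability is the ratio of nuclei in treated wells to nuclei in vehicle wells, taken as the median of duplicate plates.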

[2] = compound: CN(c1ncccc1CNc1nc(Nc2ccc3c(c2)CC(=O)N3)ncc1C(F)(F)F)S(C)(=O)=O + C[C@@H](Oc1cc(-c2cnn(C3CCNCC3)c2)cnc1N)c1c(Cl)ccc(F)c1Cl [Crizotinib] (partner 1 µM)
Outline: as §1

[3] = compound: CN(c1ncccc1CNc1nc(Nc2ccc3c(c2)CC(=O)N3)ncc1C(F)(F)F)S(C)(=O)=O + Cc1nc(Nc2ncc(C(=O)Nc3c(C)cccc3Cl)s2)cc(N2CCN(CCO)CC2)n1 [Dasatinib] (partner 0.075 µM)
Outline: as §1

[4] = compound: CN(c1ncccc1CNc1nc(Nc2ccc3c(c2)CC(=O)N3)ncc1C(F)(F)F)S(C)(=O)=O + O=C(CCCCCCC(=O)Nc1ccccc1)NO [Vorinostat] (partner 1 µM)
Outline: as §1

| Cell Line | relative viability ([1]; first compound 0.01 µM) | relative viability ([1]; first compound 0.03162 µM) | relative viability ([1]; first compound 0.1 µM) | relative viability ([1]; first compound 0.3162 µM) | relative viability ([1]; first compound 1 µM) | relative viability ([2]; first compound 0.01 µM) | relative viability ([2]; first compound 0.03162 µM) | relative viability ([2]; first compound 0.1 µM) | relative viability ([2]; first compound 0.3162 µM) | relative viability ([2]; first compound 1 µM) | relative viability ([3]; first compound 0.01 µM) | relative viability ([3]; first compound 0.03162 µM) | relative viability ([3]; first compound 0.1 µM) | relative viability ([3]; first compound 0.3162 µM) | relative viability ([3]; first compound 1 µM) | relative viability ([4]; first compound 0.01 µM) | relative viability ([4]; first compound 0.03162 µM) | relative viability ([4]; first compound 0.1 µM) | relative viability ([4]; first compound 0.3162 µM) | relative viability ([4]; first compound 1 µM) |
| --- | --- | --- | --- | --- | --- | --- | --- | --- | --- | --- | --- | --- | --- | --- | --- | --- | --- | --- | --- | --- |
| SK-MES-1 | 1.3 | 1.18 | 1.21 | 1.2 | 0.97 | 0.943 | 0.989 | 0.944 | 0.983 | 0.846 | 0.236 | 0.262 | 0.132 | 0.171 | 0.163 | 1.1 | 1.13 | 1.09 | 1.08 | 0.951 |
| NCI-H1666 | 1.1 | 0.986 | 0.906 | 0.795 | 0.57 | 0.968 | 0.951 | 0.781 | 0.596 | 0.642 | 0.804 | 0.778 | 0.961 | 0.935 | 0.603 | 1.07 | 0.94 | 0.926 | 0.758 | 0.767 |
| NCI-H1355 | 0.942 | 1.02 | 0.968 | 0.846 | 0.776 | 1.06 | 1.13 | 1.02 | 0.97 | 0.924 | 0.757 | 0.76 | 0.75 | 0.606 | 0.645 | 0.67 | 0.708 | 0.676 | 0.589 | 0.623 |
| HCC-827 | 1.01 | 1 | 0.995 | 1.04 | 0.915 | 0.893 | 0.905 | 1 | 0.893 | 0.851 | 0.191 | 0.185 | 0.115 | 0.107 | 0.109 | 0.923 | 0.861 | 0.806 | 0.954 | 0.783 |
| HARA | 1.18 | 1.19 | 1.14 | 0.91 | 0.968 | 0.938 | 0.938 | 1 | 1.02 | 0.698 | 0.228 | 0.17 | 0.19 | 0.201 | 0.217 | 0.569 | 0.573 | 0.55 | 0.516 | 0.432 |
| HCC-366 | 1.03 | 1.18 | 1.08 | 1.04 | 0.927 | 0.588 | 0.964 | 0.509 | 0.606 | 0.236 | 0.541 | 0.904 | 0.598 | 0.644 | 0.687 | 0.412 | 0.394 | 0.365 | 0.366 | 0.295 |
| NCI-H322M | 1.3 | 1.34 |  | 1.51 | 1.26 | 0.902 | 0.948 |  | 0.953 | 0.892 | 0.205 | 0.178 | 0.223 | 0.199 | 0.219 | 0.883 | 0.875 | 0.916 | 0.97 | 0.98 |
| NCI-H2347 | 0.879 | 0.69 | 0.699 | 0.701 | 0.592 | 0.698 | 0.692 | 0.61 | 0.661 | 0.658 | 0.283 | 0.313 | 0.331 | 0.297 | 0.283 | 0.584 | 0.615 | 0.527 | 0.54 | 0.413 |
